Test results as given in article PMC8355244, “A fragment-based approach identifies an allosteric pocket that impacts malate dehydrogenase activity” (Communications Biology, 2021).

Target: T1, PfMDH (Plasmodium falciparum, UniProt Q6VVP7)
T1 construct: The full-length WT PfMDH gene was cloned into pETM-13; made in house; host or cells: E. coli Rosetta 2 (DE3) pLysS
Assay: Thermal shift assay (TSA)
Type: binding
Conditions: for TSA melting curve raw signal: triplicate columns; for TSA melting curve raw fluorescence signal: three replicate columns
Procedure, shortened: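 10 μM PfMDH with 1 mM compound in 100 mM Na–phosphate pH 7.4, 400 mM NaCl, 10× Sypro Orange; 1% DMSO controls. Melting inflection points taken as Tm; shifts >1 °C read as stabilization, negative shifts as destabilization.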

T1 sequence (Q6VVP7 entry or part of it): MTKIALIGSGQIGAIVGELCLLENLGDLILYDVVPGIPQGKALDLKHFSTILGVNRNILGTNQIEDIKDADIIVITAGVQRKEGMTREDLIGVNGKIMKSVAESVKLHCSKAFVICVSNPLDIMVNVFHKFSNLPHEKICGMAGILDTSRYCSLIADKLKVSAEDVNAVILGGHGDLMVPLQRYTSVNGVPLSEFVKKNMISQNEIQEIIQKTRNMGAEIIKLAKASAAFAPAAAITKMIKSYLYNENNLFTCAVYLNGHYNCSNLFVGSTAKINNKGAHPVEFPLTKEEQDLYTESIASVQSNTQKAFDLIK

## Nc1nc(-c2cccc(C(F)(F)F)c2)cs1 [4PA-CF3]
Temperature 25
  TSA melting curve raw signal: 3528,09586476992
Temperature 25.5
  TSA melting curve raw signal: 3521,76972099321
Temperature 26
  TSA melting curve raw signal: 3515,44357721651
Temperature 26.5
  TSA melting curve raw signal: 3509,11743343981
Temperature 27
  TSA melting curve raw signal: 3502,7912896631
Temperature 27.5
  TSA melting curve raw signal: 3496,46514588642
Temperature 28
  TSA melting curve raw signal: 3490,13900210971
Temperature 28.5
  TSA melting curve raw signal: 3483,6143624971
Temperature 29
  TSA melting curve raw signal: 3476,38988350175
Temperature 29.5
  TSA melting curve raw signal: 3468,17176134374
Temperature 30
  TSA melting curve raw signal: 3458,89345122044
Temperature 30.5
  TSA melting curve raw signal: 3449,61666086928
Temperature 31
  TSA melting curve raw signal: 3441,08813548452
Temperature 31.5
  TSA melting curve raw signal: 3434,74480463775
Temperature 32
  TSA melting curve raw signal: 3431,63306422988
Temperature 32.5
  TSA melting curve raw signal: 3433,04755783933
Temperature 33
  TSA melting curve raw signal: 3439,08846015031
Temperature 33.5
  TSA melting curve raw signal: 3450,49167244057
Temperature 34
  TSA melting curve raw signal: 3467,07326310557
Temperature 34.5
  TSA melting curve raw signal: 3489,23124555062
Temperature 35
  TSA melting curve raw signal: 3516,74965348479
Temperature 35.5
  TSA melting curve raw signal: 3550,12307997406
Temperature 36
  TSA melting curve raw signal: 3588,6701161146
Temperature 36.5
  TSA melting curve raw signal: 3632,52278047685
Temperature 37
  TSA melting curve raw signal: 3681,13015232277
Temperature 37.5
  TSA melting curve raw signal: 3734,10747497721
Temperature 38
  TSA melting curve raw signal: 3790,66694872421
Temperature 38.5
  TSA melting curve raw signal: 3851,32307413445
Temperature 39
  TSA melting curve raw signal: 3915,60016677996
Temperature 39.5
  TSA melting curve raw signal: 3983,88715310611
Temperature 40
  TSA melting curve raw signal: 4056,33336034943
Temperature 40.5
  TSA melting curve raw signal: 4133,49326014565
Temperature 41
  TSA melting curve raw signal: 4215,01497025314
Temperature 41.5
  TSA melting curve raw signal: 4301,78127396551
Temperature 42
  TSA melting curve raw signal: 4393,43575455581
Temperature 42.5
  TSA melting curve raw signal: 4490,37169124646
Temperature 43
  TSA melting curve raw signal: 4592,69941738304
Temperature 43.5
  TSA melting curve raw signal: 4701,32966638299
Temperature 44
  TSA melting curve raw signal: 4815,85327556672
Temperature 44.5
  TSA melting curve raw signal: 4937,62413315095
Temperature 45
  TSA melting curve raw signal: 5067,14562465788
Temperature 45.5
  TSA melting curve raw signal: 5204,83599333482
Temperature 46
  TSA melting curve raw signal: 5349,70118139591
Temperature 46.5
  TSA melting curve raw signal: 5501,84311892238
Temperature 47
  TSA melting curve raw signal: 5660,17327748149
Temperature 47.5
  TSA melting curve raw signal: 5824,5723421521
Temperature 48
  TSA melting curve raw signal: 5994,36303099828
Temperature 48.5
  TSA melting curve raw signal: 6169,71492788648
Temperature 49
  TSA melting curve raw signal: 6349,90301622462
Temperature 49.5
  TSA melting curve raw signal: 6533,67708046246
Temperature 50
  TSA melting curve raw signal: 6718,43346697938
Temperature 50.5
  TSA melting curve raw signal: 6903,01197489117
Temperature 51
  TSA melting curve raw signal: 7086,14140810373
Temperature 51.5
  TSA melting curve raw signal: 7267,40973427596
Temperature 52
  TSA melting curve raw signal: 7446,07311090688
Temperature 52.5
  TSA melting curve raw signal: 7623,17790419487
Temperature 53
  TSA melting curve raw signal: 7798,35186729642
Temperature 53.5
  TSA melting curve raw signal: 7971,57187818721
Temperature 54
  TSA melting curve raw signal: 8142,18042787582
Temperature 54.5
  TSA melting curve raw signal: 8310,47539211232
Temperature 55
  TSA melting curve raw signal: 8475,6367965612
Temperature 55.5
  TSA melting curve raw signal: 8637,15264587991
Temperature 56
  TSA melting curve raw signal: 8794,24720730786
Temperature 56.5
  TSA melting curve raw signal: 8944,76644495546
Temperature 57
  TSA melting curve raw signal: 9087,23982318044
Temperature 57.5
  TSA melting curve raw signal: 9218,83300839243
Temperature 58
  TSA melting curve raw signal: 9336,46564098951
Temperature 58.5
  TSA melting curve raw signal: 9436,67708833889
Temperature 59
  TSA melting curve raw signal: 9517,94306567009
Temperature 59.5
  TSA melting curve raw signal: 9577,90589829803
Temperature 60
  TSA melting curve raw signal: 9615,75986877433
Temperature 60.5
  TSA melting curve raw signal: 9632,47637998784
Temperature 61
  TSA melting curve raw signal: 9629,58012627007
Temperature 61.5
  TSA melting curve raw signal: 9608,67157988917
Temperature 62
  TSA melting curve raw signal: 9572,5500875914
Temperature 62.5
  TSA melting curve raw signal: 9524,64551903011
Temperature 63
  TSA melting curve raw signal: 9467,03768559296
Temperature 63.5
  TSA melting curve raw signal: 9402,51349679748
Temperature 64
  TSA melting curve raw signal: 9333,57184164816
Temperature 64.5
  TSA melting curve raw signal: 9261,62563971527
Temperature 65
  TSA melting curve raw signal: 9187,49083186044
Temperature 65.5
  TSA melting curve raw fluorescence signal: 9112,23978010048
Temperature 66
  TSA melting curve raw fluorescence signal: 9036,14068242361
Temperature 66.5
  TSA melting curve raw fluorescence signal: 8959,64465212255
Temperature 67
  TSA melting curve raw fluorescence signal: 8882,7175782058
Temperature 67.5
  TSA melting curve raw fluorescence signal: 8805,44643012468
Temperature 68
  TSA melting curve raw fluorescence signal: 8728,2852860298
Temperature 68.5
  TSA melting curve raw fluorescence signal: 8651,13021944227
Temperature 69
  TSA melting curve raw fluorescence signal: 8573,32870649645
Temperature 69.5
  TSA melting curve raw fluorescence signal: 8495,58180428762
Temperature 70
  TSA melting curve raw fluorescence signal: 8418,5896254098
Temperature 70.5
  TSA melting curve raw fluorescence signal: 8341,60149220391
Temperature 71
  TSA melting curve raw fluorescence signal: 8265,01816022305
Temperature 71.5
  TSA melting curve raw fluorescence signal: 8189,69867306721
Temperature 72
  TSA melting curve raw fluorescence signal: 8115,16555879573
Temperature 72.5
  TSA melting curve raw fluorescence signal: 8040,74958248259
Temperature 73
  TSA melting curve raw fluorescence signal: 7967,12767450409
Temperature 73.5
  TSA melting curve raw fluorescence signal: 7893,92662128296
Temperature 74
  TSA melting curve raw fluorescence signal: 7821,33430208039
Temperature 74.5
  TSA melting curve raw fluorescence signal: 7749,70992701054
Temperature 75
  TSA melting curve raw fluorescence signal: 7679,18807246448
Temperature 75.5
  TSA melting curve raw fluorescence signal: 7609,86094414536
Temperature 76
  TSA melting curve raw fluorescence signal: 7542,08165155543
Temperature 76.5
  TSA melting curve raw fluorescence signal: 7475,0463497461
Temperature 77
  TSA melting curve raw fluorescence signal: 7409,10099573983
Temperature 77.5
  TSA melting curve raw fluorescence signal: 7344,43096825342
Temperature 78
  TSA melting curve raw fluorescence signal: 7280,55827608543
Temperature 78.5
  TSA melting curve raw fluorescence signal: 7217,66024170967
Temperature 79
  TSA melting curve raw fluorescence signal: 7156,47260834302
Temperature 79.5
  TSA melting curve raw fluorescence signal: 7096,07409325447
Temperature 80
  TSA melting curve raw fluorescence signal: 7036,61045690039
Temperature 80.5
  TSA melting curve raw fluorescence signal: 6978,28713486927
Temperature 81
  TSA melting curve raw fluorescence signal: 6920,87145232924
Temperature 81.5
  TSA melting curve raw fluorescence signal: 6863,63731764689
Temperature 82
  TSA melting curve raw fluorescence signal: 6807,28937755567
Temperature 82.5
  TSA melting curve raw fluorescence signal: 6751,29328141381
Temperature 83
  TSA melting curve raw fluorescence signal: 6695,78422169472
Temperature 83.5
  TSA melting curve raw fluorescence signal: 6641,03413791343
Temperature 84
  TSA melting curve raw fluorescence signal: 6587,1569082437
Temperature 84.5
  TSA melting curve raw fluorescence signal: 6533,84298175497
Temperature 85
  TSA melting curve raw fluorescence signal: 6481,33407729233
Temperature 85.5
  TSA melting curve raw fluorescence signal: 6429,30339853042
Temperature 86
  TSA melting curve raw fluorescence signal: 6377,40763821637
Temperature 86.5
  TSA melting curve raw fluorescence signal: 6325,81148238932
Temperature 87
  TSA melting curve raw fluorescence signal: 6274,52300647726
Temperature 87.5
  TSA melting curve raw fluorescence signal: 6222,85213595833
Temperature 88
  TSA melting curve raw fluorescence signal: 6171,16491119654
Temperature 88.5
  TSA melting curve raw fluorescence signal: 6119,12156951999
Temperature 89
  TSA melting curve raw fluorescence signal: 6066,61924971662
Temperature 89.5
  TSA melting curve raw fluorescence signal: 6013,73939632859
Temperature 90
  TSA melting curve raw fluorescence signal: 5961,79604131278
Temperature 90.5
  TSA melting curve raw fluorescence signal: 5910,31866711244
Temperature 91
  TSA melting curve raw fluorescence signal: 5859,96386783167
Temperature 91.5
  TSA melting curve raw fluorescence signal: 5810,60393842017
Temperature 92
  TSA melting curve raw fluorescence signal: 5761,96047868944
Temperature 92.5
  TSA melting curve raw fluorescence signal: 5713,35101332965
Temperature 93
  TSA melting curve raw fluorescence signal: 5664,77915169386
Temperature 93.5
  TSA melting curve raw fluorescence signal: 5615,83290965879
Temperature 94
  TSA melting curve raw fluorescence signal: 5566,24729616446
Temperature 94.5
  TSA melting curve raw fluorescence signal: 5516,6627489992
Temperature 95
  TSA melting curve raw fluorescence signal: 5465,82751388956
